As a reminder, the IC50 is the concentration needed to halve the response being measured.

Human Full Length PARG, sequence (Q86W56 whole entry): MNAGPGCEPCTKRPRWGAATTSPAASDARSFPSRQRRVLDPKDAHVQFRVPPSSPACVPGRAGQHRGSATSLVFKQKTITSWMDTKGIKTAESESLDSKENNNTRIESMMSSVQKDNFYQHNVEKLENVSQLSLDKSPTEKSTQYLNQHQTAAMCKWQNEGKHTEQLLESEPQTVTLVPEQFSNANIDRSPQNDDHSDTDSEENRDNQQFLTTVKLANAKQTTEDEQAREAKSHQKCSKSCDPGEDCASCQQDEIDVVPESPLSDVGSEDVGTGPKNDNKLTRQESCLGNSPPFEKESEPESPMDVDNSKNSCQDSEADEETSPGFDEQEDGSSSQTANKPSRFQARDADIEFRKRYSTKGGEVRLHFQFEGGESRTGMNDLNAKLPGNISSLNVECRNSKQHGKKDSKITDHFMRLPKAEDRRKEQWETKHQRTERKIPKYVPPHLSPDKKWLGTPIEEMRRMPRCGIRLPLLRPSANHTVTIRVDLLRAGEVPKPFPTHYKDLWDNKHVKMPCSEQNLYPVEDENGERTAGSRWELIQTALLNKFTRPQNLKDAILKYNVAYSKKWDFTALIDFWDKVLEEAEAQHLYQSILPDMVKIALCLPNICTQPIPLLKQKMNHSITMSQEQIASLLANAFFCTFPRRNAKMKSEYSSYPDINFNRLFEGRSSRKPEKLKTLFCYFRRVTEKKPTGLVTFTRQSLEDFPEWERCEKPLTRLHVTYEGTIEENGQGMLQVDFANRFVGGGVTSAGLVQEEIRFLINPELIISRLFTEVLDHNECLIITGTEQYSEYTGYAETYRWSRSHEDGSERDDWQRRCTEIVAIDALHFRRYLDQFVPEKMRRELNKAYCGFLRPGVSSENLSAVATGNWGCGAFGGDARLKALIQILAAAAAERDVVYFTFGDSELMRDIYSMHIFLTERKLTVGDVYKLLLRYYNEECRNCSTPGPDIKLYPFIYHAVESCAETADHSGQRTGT

The first assay concerns the target Human Full Length PARG (Homo sapiens (Human), UniProt Q86W56). The experiment in a line: PARG enzyme assay (TR-FRET). The class given is biochemical. The note with it: read-out: PARG Biochem IC50. (Time-resolved FRET reads energy transfer from a long-lived donor to a nearby acceptor.)
Consider `Cc1nonc1Cn1c(=O)c2cc(S(=O)(=O)NC3(C)CC3)ccc2n(C)c1=O` [Example 511, 1-Methyl-N-(1-methylcyclopropyl)-3-[(4-methyl-1,2,5-oxadiazol-3-yl)methyl]-2,4-dioxo-quinazoline-6-sulfonamide], for which the IC50 turned out to be 2060 nM.

With `Cn1c(=O)n(Cc2ccns2)c(=O)c2cc(S(=O)(=O)NC3(C)CC3)ccc21` [Example 510, 3-(Isothiazol-5-ylmethyl)-1-methyl-N-(1-methylcyclopropyl)-2,4-dioxo-quinazoline-6-sulfonamide], the IC50 is 2290 nM.

For `Cn1c(=O)n(CC(=O)c2ccccc2)c(=O)c2cc(S(=O)(=O)NC3(C)CC3)ccc21` [Example 530, 1-Methyl-N-(1-methylcyclopropyl)-2,4-dioxo-3-phenacyl-quinazoline-6-sulfonamide], the IC50 is 1610 nM.

In the case of `CC1(NS(=O)(=O)c2cc3c4c(cccc4c2)C(=O)NC3=O)CC1` [Example 447, N-(1-Methylcyclopropyl)-1,3-dioxo-benzo[de]isoquinoline-5-sulfonamide], the IC50 was 3470 nM.

In the case of `Cn1c(=O)n(Cc2cncs2)c(=O)c2cc(S(=O)(=O)NC3(CF)CC3)ccc21` [Example 534, N-[1-(Fluoromethyl)cyclopropyl]-1-methyl-2,4-dioxo-3-(thiazol-5-ylmethyl)quinazoline-6-sulfonamide], the IC50 stood at 578 nM.

For the compound `Cn1c(=O)[nH]c(=O)c2cc(S(=O)(=O)NC3(CF)CC3)ccc21` [Example 512, N-[1-(Fluoromethyl)cyclopropyl]-1-methyl-2,4-dioxo-quinazoline-6-sulfonamide], the IC50 turned out to be 2950 nM.

On to `Cn1c(=O)n(CC(=O)c2cccs2)c(=O)c2cc(S(=O)(=O)NC3(C)CC3)ccc21` [Example 529, 1-Methyl-N-(1-methylcyclopropyl)-2,4-dioxo-3-[2-oxo-2-(2-thienyl)ethyl]quinazoline-6-sulfonamide], for which the IC50 is 1050 nM.

For the compound `CC1(NS(=O)(=O)c2ccc3[nH]c(=O)n(CCc4ccccn4)c(=O)c3c2)CC1` [Example 495, N-(1-Methylcyclopropyl)-2,4-dioxo-3-[2-(2-pyridyl)ethyl]-1H-quinazoline-6-sulfonamide], the IC50 came out at 7070 nM.

As for `CC(C)n1cc(Cn2c(=O)c3cc(S(=O)(=O)NC4(C)CC4)ccc3n(C)c2=O)cn1` [Example 507, 3-[(1-Isopropylpyrazol-4-yl)methyl]-1-methyl-N-(1-methylcyclopropyl)-2,4-dioxo-quinazoline-6-sulfonamide], the IC50 came to 4130 nM.

Still in this assay, the particulars now being: read-out: PARG Biochem IC50 Geomean.
For `Cn1c(=O)n(CC(=O)Nc2ccccc2)c(=O)c2cc(S(=O)(=O)NC3(C)CC3)ccc21` [Example 85], the IC50 was determined as 2250 nM.

As for `Cn1c(=O)n(CC2CC2)c(=O)c2cc(S(=O)(=O)NC3(C)CC3)ccc21` [Example 20], the IC50 was found to be 4650 nM.

Consider `Cc1cc(COc2nc3ccc(S(=O)(=O)NC4(C)CC4)cc3c(=O)n2Cc2c(C)noc2C)n(C)n1` [Example 167], for which the IC50 came out at 700 nM.

On to `Cc1cc(Cn2cc(Cc3ccc(F)cc3)c3ccc(S(=O)(=O)NC4(C)CC4)cc3c2=O)on1` [Example 322, 4-[(4-Fluorophenyl)methyl]-N-(1-methylcyclopropyl)-2-[(3-methylisoxazol-5-yl)methyl]-1-oxo-isoquinoline-7-sulfonamide], for which the IC50 turned out to be 2100 nM.

With `Cn1c(=O)n(Cc2ccno2)c(=O)c2cc(S(=O)(=O)NC3(C)CC3)ccc21` [Example 226], the IC50 stood at 1180 nM.

Consider `Cc1cc(Cn2cc(Br)c3ccc(S(=O)(=O)NC4(C)CC4)cc3c2=O)on1` [Example 307, 4-Bromo-N-(1-methylcyclopropyl)-2-[(3-methylisoxazol-5-yl)methyl]-1-oxo-isoquinoline-7-sulfonamide], for which the IC50 turned out to be 2680 nM.

As to `Cc1cc(Cn2nc(C)c3ccc(S(=O)(=O)NC4(C)CC4)cc3c2=O)on1` [Example 284, 1-methyl-N-(1-methylcyclopropyl)-3-[(3-methylisoxazol-5-yl)methyl]-4-oxo-phthalazine-6-sulfonamide], the IC50 worked out at 1180 nM.

Regarding `Cn1c(=O)n(CC#N)c(=O)c2cc(S(=O)(=O)NC3(C)CC3)ccc21` [Example 31], the IC50 was found to be 1140 nM.

Regarding `Cn1cc(NC(=O)Cn2c(=O)n(C)c(=O)c3cc(S(=O)(=O)NC4(C)CC4)ccc32)cn1` [Example 106], the IC50 worked out at 3880 nM.

Consider `Cc1cccc(Cn2c(=O)n(C)c(=O)c3cc(S(=O)(=O)NC4(C)CC4)ccc32)c1` [Example 57], for which the IC50 turned out to be 1110 nM.

Turning to `Cc1cc(Cn2c(=O)c3cc(S(=O)(=O)NC4(C)CC4)cnc3n(C)c2=O)on1` [Example 205], the IC50 worked out at 2600 nM.

Regarding `Cc1cc(Cn2nc(OC3CCC3)c3ccc(S(=O)(=O)NC4(C)CC4)cc3c2=O)on1` [Example 319], the IC50 stood at 859 nM.

With `Cn1c(=O)c2cc(S(=O)(=O)NC3(C)CC3)c(F)cc2n(C)c1=O` [Example 224], the IC50 turned out to be 1440 nM.

With `COc1ccc(Cn2cc(Cn3c(=O)c4cc(S(=O)(=O)NC5(C)CC5)ccc4n(C)c3=O)cn2)cc1` [Example 212], the IC50 is 1370 nM.

As for `Cc1cc(Cn2nc(CC3CCC3)c3ccc(S(=O)(=O)NC4(C)CC4)cc3c2=O)on1` [Example 320], the IC50 was determined as 674 nM.

For the compound `CC1(NS(=O)(=O)c2ccc3[nH]c(=O)n(C4CC4)c(=O)c3c2)CC1` [Example 240, 3-Cyclopropyl-N-(1-methylcyclopropyl)-2,4-dioxo-1H-quinazoline-6-sulfonamide], the IC50 is 4120 nM.

For the compound `Cn1c(=O)c2cc(S(=O)(=O)NC3(C)CC3)ccc2n(CC#N)c1=O` [Example 175], the IC50 is 4410 nM.

Regarding `Cn1c(=O)n(Cc2ccc(C(N)=O)cc2)c(=O)c2cc(S(=O)(=O)NC3(C)CC3)ccc21` [Example 89], the IC50 was 5890 nM.

Turning to `CC1(NS(=O)(=O)c2ccc3[nH]c(=O)[nH]c(=O)c3c2)CC1` [Example 1], the IC50 amounted to 9170 nM.

For `CCn1c(=O)n(C)c(=O)c2cc(S(=O)(=O)NC3(C)CC3)ccc21` [Example 9], the IC50 stood at 4110 nM.

For the compound `Cn1c(=O)c(=O)n(Cc2ccccc2)c2ccc(S(=O)(=O)NC3(C)CC3)cc21` [Example 40, 1-Benzyl-4-methyl-N-(1-methylcyclopropyl)-2,3-dioxo-quinoxaline-6-sulfonamide], the IC50 amounted to 2790 nM.

In the case of `CCC1(NS(=O)(=O)c2ccc3c(c2)c(=O)n(Cc2cc(C)no2)c(=O)n3C)CC1` [Example 261], the 50% inhibitory concentration (IC50) turned out to be 3040 nM.

On to `CNc1nn(Cc2cc(C)no2)c(=O)c2cc(S(=O)(=O)NC3(C)CC3)ccc12` [Example 244, 1-(methylamino)-N-(1-methylcyclopropyl)-3-[(3-methylisoxazol-5-yl)methyl]-4-oxo-phthalazine-6-sulfonamide], for which the half-inhibitory concentration (IC50) came to 666 nM.

`Cn1c(=O)n(CC(=O)N2CCOCC2)c(=O)c2cc(S(=O)(=O)NC3(C)CC3)ccc21` [Example 182]: the half-maximal inhibitory concentration (IC50) was determined as 4410 nM.

Take `Cn1c(=O)n(CC(=O)c2ccc(N3CCCC3)cc2)c(=O)c2cc(S(=O)(=O)NC3(C)CC3)ccc21` [Example 114]: the IC50 is 1510 nM.

On to `Cn1c(=O)c2cc(S(=O)(=O)NC3(C)CC3)ccc2n(Cc2noc(C(N)=O)n2)c1=O` [Example 95], for which the IC50 is 758 nM.

On to `Cc1nc(C)c(Cn2c(=O)n(C)c(=O)c3cc(S(=O)(=O)NC(C)(C)C)ccc32)s1` [Example 202], for which the IC50 is 1390 nM.

As to `Cn1c(=O)c2cc(S(=O)(=O)NC3(C)CC3)ccc2n(CC2CCCO2)c1=O` (stereo not shown) [Example 49], the concentration for half-maximal inhibition (IC50) was 2420 nM.

For `Cn1c(=O)c2cc(S(=O)(=O)NC3(C)CC3)ccc2n(Cc2ccccc2F)c1=O` [Example 65], the IC50 is 1450 nM.

On to `Cc1cc(Cn2nc(CC3CCCCC3)c3ccc(S(=O)(=O)NC4(C)CC4)cc3c2=O)on1` [Example 314], for which the IC50 is 1370 nM.

In the case of `Cn1c(=O)c2cc(S(=O)(=O)NC3(C#N)CC3)ccc2n(C)c1=O` [Example 3], the IC50 was found to be 4960 nM.

Take `Cn1c(=O)n(CC2CC2(F)F)c(=O)c2cc(S(=O)(=O)NC3(C)CC3)ccc21` (stereo not shown) [Example 50]: the IC50 was 3410 nM.

As for `Cn1c(=O)c2cc(S(=O)(=O)NC3(C)CC3)ccc2n(CC2CCCCO2)c1=O` (stereo not shown) [Example 38], the IC50 was 1550 nM.

For `Cn1c(=O)c2cc(S(=O)(=O)NC3(C)CC3)ccc2n(Cc2noc(C(C)(C)C)n2)c1=O` [Example 119], the IC50 worked out at 1420 nM.

With `Cc1cc(Cn2c(=O)c3cc(S(=O)(=O)NC4(C)CC4)ccc3n(CCN3CCCCC3)c2=O)on1` [Example 278], the IC50 came to 526 nM.

As for `CN(C)CCn1cc(Cn2c(=O)c3cc(S(=O)(=O)NC4(C)CC4)ccc3n(C)c2=O)cn1` [Example 219], the half-maximal inhibitory concentration (IC50) came to 2480 nM.

For `Cn1c(=O)c2cc(S(=O)(=O)NC3(C)CC3)ccc2n(Cc2ccccc2Cl)c1=O` [Example 62], the IC50 was 1270 nM.

With `Cn1c(=O)c2cc(S(=O)(=O)NC3(C)CC3)ccc2n(CC(=O)c2ccc(N3CCCC3)cc2)c1=O` [Example 117], the IC50 worked out at 4810 nM.

`CC1(NS(=O)(=O)c2ccc3nc(C4CC4)[nH]c(=O)c3c2)CC1` [Example 54]: the IC50 came out at 2420 nM.

`Cn1c(=O)c2cc(S(=O)(=O)NC3(C)CC3)ccc2n(Cc2ccccc2C(F)(F)F)c1=O` [Example 71]: the IC50 came out at 2390 nM.

As to `Cn1c(=O)c2cc(S(=O)(=O)NC3(C)CC3)ccc2n(Cc2ccncc2)c1=O` [Example 84], the IC50 is 2370 nM.

As to `Cn1c(=O)c(=O)n(Cc2ccc(F)cc2)c2ccc(S(=O)(=O)NC3(C)CC3)cc21` [Example 130, 1-[(4-Fluorophenyl)methyl]-4-methyl-N-(1-methylcyclopropyl)-2,3-dioxo-quinoxaline-6-sulfonamide], the concentration for half-maximal inhibition (IC50) worked out at 3360 nM.

Take `Cc1cc(Cn2ccc3ccc(S(=O)(=O)NC4(C)CC4)cc3c2=O)on1` [Example 242, N-(1-Methylcyclopropyl)-2-[(3-methylisoxazol-5-yl)methyl]-1-oxo-isoquinoline-7-sulfonamide]: the IC50 turned out to be 7350 nM.

In the case of `Cc1noc(Cn2c(=O)c3cc(S(=O)(=O)NC4(C)CC4)ccc3n(C)c2=O)n1` [Example 190], the IC50 is 3180 nM.

For the compound `Cn1c(=O)n(Cc2cnccn2)c(=O)c2cc(S(=O)(=O)NC3(C)CC3)ccc21` [Example 108], the half-maximal inhibitory concentration (IC50) turned out to be 7800 nM.

With `Cn1c(=O)n(Cc2cnn(Cc3ccccc3)c2)c(=O)c2cc(S(=O)(=O)NC3(C)CC3)ccc21` [Example 215], the IC50 is 592 nM.
